US10294202B2, “Pyrrolidinones as herbicides” (FMC Corporation, priority 2013, dated 2019)

Key:
barnyardgrass [1] = test: Test A pre-/postemergence herbicide test; format: in vivo, Echinochloa crus-galli
In short: (§1)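 Formulated compound (non-phytotoxic solvent, surfactant) sprayed pre- onto soil of seeded loam/sand pots or post- onto seedlings at 1–2 leaves; ~10 d greenhouse; 0–100 visual control rating versus untreated.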

kochia = test: Test A pre-/postemergence herbicide test; format: in vivo, Kochia scoparia; conditions: for Plant response rating, Kochia: 0 to 100 scale
In short: as §1

ragweed = test: Test A pre-/postemergence herbicide test; format: in vivo, Ambrosia elatior; conditions: for Plant response rating, Ragweed: 0 to 100 scale
In short: as §1

ryegrass, Italian = test: Test A pre-/postemergence herbicide test; format: in vivo, Lolium multiflorum; conditions: for Plant response rating, Ryegrass, Italian: 0 to 100 scale
In short: as §1

giant foxtail = test: Test A pre-/postemergence herbicide test; format: in vivo, Setaria faberii; conditions: for Plant response rating, Foxtail, Giant: 0 to 100 scale
In short: as §1

pigweed = test: Test A pre-/postemergence herbicide test; format: in vivo, Amaranthus retroflexus; conditions: for Plant response rating, Pigweed: 0 to 100 scale
In short: as §1

wheat = test: Test A pre-/postemergence herbicide test; format: in vivo, Triticum aestivum; conditions: Postemergence; for Plant response rating, Wheat: 125 g ai/ha, 0 to 100 scale, 0 is no effect, 100 is complete control; for Wheat plant response rating (0 to 100 scale, 0 is no effect, 100 is complete control): 500 g ai/ha
In short: as §1

corn = test: Test A pre-/postemergence herbicide test; format: in vivo, Zea mays; conditions: Postemergence; for Plant response rating, Corn: 125 g ai/ha, 0 to 100 scale, 0 is no effect, 100 is complete control; for Corn plant response rating (0 to 100 scale, 0 is no effect, 100 is complete control): 500 g ai/ha
In short: as §1

blackgrass = test: Test A postemergence herbicide test; format: in vivo, Alopecurus myosuroides; conditions: for Plant response rating, Blackgrass: 125 g ai/ha, 0 to 100 scale, 0 is no effect, 100 is complete control; for Blackgrass plant response rating (0 to 100 scale, 0 is no effect, 100 is complete control): 500 g ai/ha
In short: (§2)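 Plants at the one- to two-leaf stage, 2–10 cm tall, grown in loam/sand pots, received postemergence sprays of the test chemicals. After about 10 days in the greenhouse, injury was scored visually against untreated controls on a 0–100 scale (0 none, 100 complete control).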

galium = test: Test A postemergence herbicide test; format: in vivo, Galium aparine; conditions: for Plant response rating, Galium: 125 g ai/ha, 0 to 100 scale, 0 is no effect, 100 is complete control; for Galium plant response rating (0 to 100 scale, 0 is no effect, 100 is complete control): 500 g ai/ha
In short: as §2

rice = test: Test B flooded paddy test; format: in vivo, Oryza sativa; conditions: 500 g ai/ha, Flood; scale of 0 to 100 where 0 is no effect and 100 is complete control
In short: (§3)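 Paddy-water application at a 3 cm flood, young plants having two leaves. Water level maintained; greenhouse, 13–15 days; visual 0–100 control rating.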

sedge, umbrella = test: Test B flooded paddy test; format: in vivo, Cyperus difformis; conditions: 500 g ai/ha, Flood; scale of 0 to 100 where 0 is no effect and 100 is complete control
In short: as §3

ducksalad = test: Test B flooded paddy test; format: in vivo, Heteranthera limosa; conditions: 500 g ai/ha, Flood; scale of 0 to 100 where 0 is no effect and 100 is complete control
In short: as §3

barnyardgrass [2] = test: Test B flooded paddy test; format: in vivo, Echinochloa crus-galli; conditions: 500 g ai/ha, Flood; scale of 0 to 100 where 0 is no effect and 100 is complete control
In short: as §3

[3] = 125 g ai/ha, visual rating, 0 to 100 scale, 0 no effect, 100 complete control, approximately 10 days, preemergence
[4] = Postemergence, 125 g ai/ha, 0 to 100 scale, 0 is no effect, 100 is complete control
[5] = preemergence, 500 g ai/ha, 0 to 100 scale (0 no effect, 100 complete control)
[6] = 125 g ai/ha, visual rating, 0 no effect, 100 complete control, approximately 10 days, preemergence
[7] = Postemergence, 125 g ai/ha, 0 is no effect, 100 is complete control
[8] = preemergence, 500 g ai/ha, 0 is no effect and 100 is complete control

Cc1ccc(C2CNC(=O)C2C(=O)Nc2cccc(F)c2)cc1 (racemic) [Compound 153]
Plant response rating, Barnyardgrass (barnyardgrass [1]; [3]): 80
Plant response rating, Barnyardgrass (barnyardgrass [1]; [4]): 60
Barnyardgrass plant response rating (0 to 100 scale, 0 is no effect, 100 is complete control) (barnyardgrass [1]; Postemergence, 500 g ai/ha): 80
Plant response rating, Barnyardgrass (barnyardgrass [1]; [5]): 90
Plant response rating, Kochia (kochia; [6]): 60
Plant response rating, Kochia (kochia; [7]): 60
Kochia plant response rating (0 to 100 scale, 0 is no effect, 100 is complete control) (kochia; Postemergence, 500 g ai/ha): 60
Plant response rating, Kochia (kochia; [8]): 80
Plant response rating, Ragweed (ragweed; [6]): 0
Plant response rating, Ragweed (ragweed; [7]): 0
Ragweed plant response rating (0 to 100 scale, 0 is no effect, 100 is complete control) (ragweed; Postemergence, 500 g ai/ha): 10
Plant response rating, Ragweed (ragweed; [8]): 80
Plant response rating, Ryegrass, Italian (ryegrass, Italian; [6]): 0
Plant response rating, Ryegrass, Italian (ryegrass, Italian; [7]): 0
Ryegrass, Italian plant response rating (0 to 100 scale, 0 is no effect, 100 is complete control) (ryegrass, Italian; Postemergence, 500 g ai/ha): 0
Plant response rating, Ryegrass, Italian (ryegrass, Italian; [8]): 0
Plant response rating, Foxtail, Giant (giant foxtail; [6]): 60
Plant response rating, Foxtail, Giant (giant foxtail; [7]): 50
Foxtail, Giant plant response rating (0 to 100 scale, 0 is no effect, 100 is complete control) (giant foxtail; Postemergence, 500 g ai/ha): 60
Plant response rating, Foxtail, Giant (giant foxtail; preemergence, 500 g ai/ha): 80
Plant response rating, Pigweed (pigweed; [6]): 0
Plant response rating, Pigweed (pigweed; [7]): 40
Pigweed plant response rating (0 to 100 scale, 0 is no effect, 100 is complete control) (pigweed; Postemergence, 500 g ai/ha): 50
Plant response rating, Pigweed (pigweed; [8]): 0
Plant response rating, Wheat (wheat): 0
Wheat plant response rating (0 to 100 scale, 0 is no effect, 100 is complete control) (wheat): 0
Plant response rating, Corn (corn): 0
Corn plant response rating (0 to 100 scale, 0 is no effect, 100 is complete control) (corn): 0
Plant response rating, Blackgrass (blackgrass): 40
Blackgrass plant response rating (0 to 100 scale, 0 is no effect, 100 is complete control) (blackgrass): 30
Plant response rating, Galium (galium): 0
Galium plant response rating (0 to 100 scale, 0 is no effect, 100 is complete control) (galium): 60
Plant response rating, Rice (rice): 10
Plant response rating, Sedge, Umbrella (sedge, umbrella): 0
Plant response rating, Ducksalad (ducksalad): 100
Plant response rating, Barnyardgrass (barnyardgrass [2]): 60

O=C1NCC(c2ccc3c(c2)OC(F)(F)O3)C1C(=O)Nc1ccccc1F (racemic) [Compound 161]
Plant response rating, Barnyardgrass (barnyardgrass [1]; [3]): 90
Plant response rating, Barnyardgrass (barnyardgrass [1]; [4]): 90
Barnyardgrass plant response rating (0 to 100 scale, 0 is no effect, 100 is complete control) (barnyardgrass [1]; Postemergence, 500 g ai/ha): 90
Plant response rating, Barnyardgrass (barnyardgrass [1]; [5]): 90
Plant response rating, Kochia (kochia; [6]): 20
Plant response rating, Kochia (kochia; [7]): 20
Kochia plant response rating (0 to 100 scale, 0 is no effect, 100 is complete control) (kochia; Postemergence, 500 g ai/ha): 60
Plant response rating, Kochia (kochia; [8]): 60
Plant response rating, Ragweed (ragweed; [6]): 20
Plant response rating, Ragweed (ragweed; [7]): 0
Ragweed plant response rating (0 to 100 scale, 0 is no effect, 100 is complete control) (ragweed; Postemergence, 500 g ai/ha): 30
Plant response rating, Ragweed (ragweed; [8]): 70
Plant response rating, Ryegrass, Italian (ryegrass, Italian; [6]): 0
Plant response rating, Ryegrass, Italian (ryegrass, Italian; [7]): 20
Ryegrass, Italian plant response rating (0 to 100 scale, 0 is no effect, 100 is complete control) (ryegrass, Italian; Postemergence, 500 g ai/ha): 50
Plant response rating, Ryegrass, Italian (ryegrass, Italian; [8]): 50
Plant response rating, Foxtail, Giant (giant foxtail; [6]): 90
Plant response rating, Foxtail, Giant (giant foxtail; [7]): 90
Foxtail, Giant plant response rating (0 to 100 scale, 0 is no effect, 100 is complete control) (giant foxtail; Postemergence, 500 g ai/ha): 90
Plant response rating, Foxtail, Giant (giant foxtail; preemergence, 500 g ai/ha): 90
Plant response rating, Pigweed (pigweed; [6]): 20
Plant response rating, Pigweed (pigweed; [7]): 20
Pigweed plant response rating (0 to 100 scale, 0 is no effect, 100 is complete control) (pigweed; Postemergence, 500 g ai/ha): 60
Plant response rating, Pigweed (pigweed; [8]): 70
Plant response rating, Wheat (wheat): 20
Wheat plant response rating (0 to 100 scale, 0 is no effect, 100 is complete control) (wheat): 40
Plant response rating, Corn (corn): 10
Corn plant response rating (0 to 100 scale, 0 is no effect, 100 is complete control) (corn): 60
Plant response rating, Blackgrass (blackgrass): 50
Blackgrass plant response rating (0 to 100 scale, 0 is no effect, 100 is complete control) (blackgrass): 50
Plant response rating, Galium (galium): 50
Galium plant response rating (0 to 100 scale, 0 is no effect, 100 is complete control) (galium): 60
Plant response rating, Rice (rice): 10
Plant response rating, Sedge, Umbrella (sedge, umbrella): 0
Plant response rating, Ducksalad (ducksalad): 100
Plant response rating, Barnyardgrass (barnyardgrass [2]): 65

O=C1NCC(c2cccc(C(F)F)c2)C1C(=O)Nc1ccc(F)c(F)c1F (racemic) [Compound 165]
Plant response rating, Barnyardgrass (barnyardgrass [1]; [3]): 90
Plant response rating, Barnyardgrass (barnyardgrass [1]; [4]): 90
Barnyardgrass plant response rating (0 to 100 scale, 0 is no effect, 100 is complete control) (barnyardgrass [1]; Postemergence, 500 g ai/ha): 90
Plant response rating, Barnyardgrass (barnyardgrass [1]; [5]): 90
Plant response rating, Kochia (kochia; [6]): 70
Plant response rating, Kochia (kochia; [7]): 50
Kochia plant response rating (0 to 100 scale, 0 is no effect, 100 is complete control) (kochia; Postemergence, 500 g ai/ha): 70
Plant response rating, Kochia (kochia; [8]): 70
Plant response rating, Ragweed (ragweed; [6]): 0
Plant response rating, Ragweed (ragweed; [7]): 20
Ragweed plant response rating (0 to 100 scale, 0 is no effect, 100 is complete control) (ragweed; Postemergence, 500 g ai/ha): 50
Plant response rating, Ragweed (ragweed; [8]): 80
Plant response rating, Ryegrass, Italian (ryegrass, Italian; [6]): 0
Plant response rating, Ryegrass, Italian (ryegrass, Italian; [7]): 40
Ryegrass, Italian plant response rating (0 to 100 scale, 0 is no effect, 100 is complete control) (ryegrass, Italian; Postemergence, 500 g ai/ha): 50
Plant response rating, Ryegrass, Italian (ryegrass, Italian; [8]): 20
Plant response rating, Foxtail, Giant (giant foxtail; [6]): 90
Plant response rating, Foxtail, Giant (giant foxtail; [7]): 70
Foxtail, Giant plant response rating (0 to 100 scale, 0 is no effect, 100 is complete control) (giant foxtail; Postemergence, 500 g ai/ha): 90
Plant response rating, Foxtail, Giant (giant foxtail; preemergence, 500 g ai/ha): 90
Plant response rating, Pigweed (pigweed; [6]): 50
Plant response rating, Pigweed (pigweed; [7]): 30
Pigweed plant response rating (0 to 100 scale, 0 is no effect, 100 is complete control) (pigweed; Postemergence, 500 g ai/ha): 50
Plant response rating, Pigweed (pigweed; [8]): 70
Plant response rating, Wheat (wheat): 30
Wheat plant response rating (0 to 100 scale, 0 is no effect, 100 is complete control) (wheat): 70
Plant response rating, Corn (corn): 60
Corn plant response rating (0 to 100 scale, 0 is no effect, 100 is complete control) (corn): 80
Plant response rating, Blackgrass (blackgrass): 60
Blackgrass plant response rating (0 to 100 scale, 0 is no effect, 100 is complete control) (blackgrass): 70
Plant response rating, Galium (galium): 40
Galium plant response rating (0 to 100 scale, 0 is no effect, 100 is complete control) (galium): 50
Plant response rating, Rice (rice): 10
Plant response rating, Sedge, Umbrella (sedge, umbrella): 0
Plant response rating, Ducksalad (ducksalad): 100
Plant response rating, Barnyardgrass (barnyardgrass [2]): 75
